Measured values reported in US20230381142A1, “ANTILEISHMANIAL COMPOUNDS, COMPOSITIONS AND USE THEREOF” (TRUSTEES OF BOSTON UNIVERSITY, priority 2022, published 2023).
Like-named read-outs stand apart in the source and are kept apart here.

Tests used:
[1] = system: L. donovani intracellular amastigotes in B10R cells; assay: UCSD L. donovani infection assay (Assay Conditions D); assay type: cell-based; conditions: B10R cells; for L. donovani amastigotes EC75 (B10R cells): footnote d; for EC50: Leishmania donovani, values marked d, read-out: L. donovani amastigotes EC50 (B10R cells)
Method in brief: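 Compounds, either single-point at 10 μM or 10-point 2-fold series (3 technical, 2 biological replicates), were incubated 72 h at 37° C. with B10R host cells co-seeded with day-7 stationary L. donovani promastigotes (20:1). DAPI-stained nuclei imaging yielded intracellular parasite EC50 and host-cell CC50.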

[2] = system: L. braziliensis (strain BA788) in J774 cells; assay: J774 luciferase infection assay (Assay Conditions E); assay type: cell-based, Leishmania braziliensis
Description: Assay Conditions E: J774 cells (ATCC J774A.1 were grown in DMEM supplemented with 10% Fetal Bovine Serum (FBS) and 1% Penicillin-Streptomycin at 37° C. in 5% CO2. Leishmania parasites expressing luciferase and GFP were grown as described in Front. Cell. Infect. Microbiol (2019) 9:237. J774 cells were seeded in microwell plates at 3×10^5 cells/mL density. Cells were washed with PBS and incubated with complete DMEM medium containing stationary phase Leishmania promastigotes (L. major: strain Friedlin; L. braziliensis, strain BA788) at a 1:10 parasite-cell ratio for 24 h. Cells were washed with PBS. Cells and compounds were incubated for 48 h at 37° C. and 5% C02. Compounds were tested in 8-point 2-fold serial dilution in 4 technical replicates, and 2 biological replicates. After 48 h, OneTiterGlo (Promega) (100 μl) was added to each well. Plates were incubated for 15 min and bioluminescence was measured using a plate reader (Molecular Devices). Effective concentration inducing 75% activity (EC75) was calculated using GraphPad Prism Software (version 9.0).

[3] = UCSD infection assay, host cell cytotoxicity (CC50); assay type: cell-based; conditions: mouse, B10R host cells infected with L. donovani
Description: (§1) Assay Conditions D: B10R cells (CVCL_0155) were seeded at 300 cells/well, and L. donovani WT promastigotes in stationary phase (7th day after passage) were added at 6,000 parasites/well (ratio of 20 parasites/cell). Both cells and parasites were seeded in DMEM High-Glucose medium (Gibco, cat. no. 11995065) containing 5% Fetal Bovine Serum (Sigma-Aldrich, cat. no. F2442) and 1% Penicillin-Streptomycin (Gibco, cat. no. 15140122). Cells and parasites were incubated in the presence of the compounds for 72 h at 37° C. and 5% C02. Plates were then fixed with 4% formaldehyde solution for at least 1 h, then washed with 1×PBS and stained with 5 μg/mL DAPI. Plates were read using an ImageXpress microscope (Molecular Devices) and analyzed by MetaXpress software (Molecular Devices) using a custom module optimized for this assay. […] Compounds were tested in a 10-point 2-fold serial dilution in 3 technical replicates, and 2 biological replicates. After 72 h, plates were fixed and stained with DAPI as described above. Images were acquired on an ImageXpress microscope, and analyzed using the MetaXpress custom module.
as §1, with “Compounds were obtained as 0.2 μmoles of dried film for primary single point screening. Each compound was diluted in DMSO to 10 μM final testing concentration. These compounds were tested in 2 biological replicates. The compounds were pre-spotted onto 384-well assay plates in single concentration.” for “Assay Conditions D:”, “CO2.” for “C02.”, “module. The DRCs were plotted, half-effective concentration (EC50) and half-cytotoxic concentration (CC50) were calculated using GraphPad Prism Software, version 6.05 (GraphPad Software, San Diego, CA).” for “module.”

[4] = system: L. donovani intracellular amastigotes infecting THP-1 macrophages; assay: GSK intramacrophage L. donovani assay (LD AMMAC, inMac; Assay Conditions C); assay type: cell-based; conditions: Leishmania donovani
Method in brief: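 EC50 values come from counting amastigotes per infected THP-1 macrophage (AMMAC). Parallel read-outs give percentage of infected cells per well (INFCELL) and a macrophage-number toxicity EC50 (MAC).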

[5] = GSK inMac assay, host cell toxicity readout (LD MAC); assay type: cell-based, human; conditions: human
Method in brief: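 MAC EC50 reflects THP-1 host cell counts, measured within GSK's inMac L. donovani infection assay that also scores intracellular amastigotes and infected-cell percentage.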

[6] = THP-1 cells, values marked c, read-out: L. donovani amastigotes EC50 (THP-1 cells)
[7] = footnote c, read-out: THP-1 Host Cell CC50
[8] = values marked c: THP-1 cells, read-out: L. donovani amastigotes EC50 (μM, THP-1 or B10R cells)

| SMILES | L. donovani amastigotes EC75 (μM, B10R cells) [1] | CC50 at 72 h ([3]; host B10R cells) | CC50 at 72 h ([3]; footnote d) | L. donovani amastigotes EC75 (B10R cells) [1] | CC50 [5, 7] | also measured |
| --- | --- | --- | --- | --- | --- | --- |
| CC(C)Cc1n[nH]c2c1C(c1ccc(Br)cc1F)N(c1ccc(F)nc1)C2=O (stereo not shown) [BUCMD00649] | >10 µM | – | – | – | – | L. braziliensis amastigotes EC75 (μM, J774 cells) [2]: >10 µM |
| CC(C)Cc1n[nH]c2c1C(c1ccc(F)cc1Br)N(c1ccc(F)nc1)C2=O (stereo not shown) [BUCMD00650] | >10 µM | – | – | – | – | L. braziliensis amastigotes EC75 (μM, J774 cells) [2]: 9.0 µM |
| Cc1ccccc1C1c2c(CC(C)C)n[nH]c2C(=O)N1c1ccc(F)nc1 (stereo not shown) [BUCMD00651] | 6.3 µM | – | – | – | – | L. braziliensis amastigotes EC75 (μM, J774 cells) [2]: >10 µM |
| CC(C)Cc1n[nH]c2c1C(c1ccc(F)cc1Cl)N(c1ccc(N3CCN(C)CC3)nc1)C2=O (stereo not shown) [BUCMD00718] | 1.0 µM | 6.31 µM | – | – | – | – |
| CC(C)Cc1n[nH]c2c1C(c1ccc(Cl)cc1Cl)N(c1ccc(N3CCN(C)CC3)nc1)C2=O (stereo not shown) [BUCMD00719] | >10 µM | 2 µM | – | – | – | – |
| CC(C)Cc1n[nH]c2c1C(c1ccc(F)cc1F)N(c1ccc(N3CCN(C)CC3)nc1)C2=O (stereo not shown) [BUCMD00722] | >10 µM | 7.94 µM | – | – | – | – |
| CC(C)Cc1n[nH]c2c1C(c1ccccc1C(F)(F)F)N(c1ccc(N3CCN(C)CC3)nc1)C2=O (stereo not shown) [BUCMD00723] | 10.0 µM | 7.94 µM | – | – | – | – |
| CC(C)Cc1n[nH]c2c1C(c1ccccc1F)N(c1ccc(N3CCN(C)CC3)nc1)C2=O (stereo not shown) [BUCMD00724] | >10 µM | 6.31 µM | – | – | – | – |
| CC(C)Cc1n[nH]c2c1C(c1ccc(F)c(F)c1)N(c1ccc(N3CCN(C)CC3)nc1)C2=O (stereo not shown) [BUCMD00725] | >10 µM | 7.94 µM | – | – | – | – |
| COc1ncc(N2C(=O)c3[nH]nc(CC(C)C)c3C2c2ccc(F)cc2Cl)cc1F (stereo not shown) [BUCMD00730] | – | – | 10 µM | 0.6 µM | – | – |
| C#CCCCCn1nc(CC(C)C)c2c1C(=O)N(c1ccc(OC)cc1)C2c1ccc(F)cc1 (stereo not shown) [BUCMD00741] | >10 µM | 10 µM | – | – | – | – |
| COc1ccc(N2C(=O)c3[nH]nc(CC(C)C)c3[C@@H]2c2cccc(C(F)(F)F)c2)cn1 [BUCMD00805] | – | – | 6.31 µM | 1.6 µM | 25.1 µM | EC50 [4, 6]: 5 µM |
| CC(C)Cc1n[nH]c2c1C(c1ccccc1Cl)N(c1ccc(N(C)C)cc1)C2=O (stereo not shown) [CMLD010920] | – | – | 6.31 µM | 0.3 µM | 7.3 µM | EC50 [1]: 0.3 µM |
| COc1ccc(N2C(=O)c3[nH]nc(CC(C)C)c3[C@H]2c2ccccc2Br)cn1 [CMLD010977] | 1.0 µM | 15.8 µM | – | – | – | EC50 [4, 8]: 2 µM; CC50 ([5]; host THP-1 cells): 25.1 µM |
| CC(C)Cc1n[nH]c2c1C(c1ccc(F)cc1)N(c1ccc(N(C)C)cc1)C2=O (stereo not shown) [CMLD011039] | – | – | 6.31 µM | 0.3 µM | 39.8 µM | EC50 [4, 6]: 1 µM |
| CC(C)Cc1n[nH]c2c1C(c1ccc(F)cc1)N(c1ccc3c(c1)OCCO3)C2=O (stereo not shown) [CMLD011101] | – | – | 15.8 µM | 1.2 µM | 25.1 µM | EC50 [4, 6]: 3.2 µM |
| COc1ccc(N2C(=O)c3[nH]nc(CC(C)C)c3C2c2ccc(C)s2)cc1 (stereo not shown) [CMLD011123] | 2.5 µM | 15.8 µM | – | – | – | EC50 [4, 8]: 5 µM; CC50 ([5]; host THP-1 cells): 20 µM |
| CC(C)Cc1n[nH]c2c1C(c1cccc(C(F)(F)F)c1)N(c1ccc3c(c1)OCO3)C2=O (stereo not shown) [CMLD011139] | >10 µM | 12.6 µM | – | – | – | EC50 [4, 8]: 3.2 µM; CC50 ([5]; host THP-1 cells): 20 µM |
| CC(C)Cc1n[nH]c2c1C(c1ccccc1Br)N(c1ccc3c(c1)OCC(=O)N3)C2=O (stereo not shown) [CMLD011497] | 0.9 µM | 6.31 µM | – | – | – | EC50 [4, 8]: 2 µM; CC50 ([5]; host THP-1 cells): 20 µM |
| COc1ccccc1C1c2c(CC(C)C)n[nH]c2C(=O)N1c1ccc(Br)cc1 (stereo not shown) [CMLD011549] | – | – | 1 µM | 0.3 µM | 1.1 µM | EC50 [1]: 0.2 µM |
| CC(C)Cc1n[nH]c2c1C(c1ccccc1Br)N(c1ccc(Br)cc1)C2=O (stereo not shown) [CMLD011551] | – | – | 6.31 µM | 0.5 µM | 5 µM | EC50 [1]: 0.4 µM |
| CC(C)Cc1n[nH]c2c1C(c1c(Cl)cccc1Cl)N(c1ccc(N(C)C)cc1)C2=O (stereo not shown) [CMLD011553] | 3.0 µM | 5.01 µM | – | – | – | EC50 [4, 8]: 4 µM; CC50 ([5]; host THP-1 cells): 20 µM |
| COc1ccc(N2C(=O)c3[nH]nc(CC(C)C)c3C2c2ccccc2OC)cc1F (stereo not shown) [CMLD011566] | – | – | 0.316 µM | 0.4 µM | 0.3 µM | EC50 [1]: 0.4 µM |
| COc1ccc(N2C(=O)c3[nH]nc(CC(C)C)c3C2c2ccccc2OC)cn1 (stereo not shown) [CMLD011567] | – | – | 20 µM | 1.2 µM | > 20 µM | EC50 [1]: 1.1 µM |
| COc1ccc(N2C(=O)c3[nH]nc(CC(C)C)c3C2c2ccccc2Br)cc1F (stereo not shown) [CMLD012217] | – | – | 3.98 µM | 0.5 µM | 3 µM | EC50 [1]: 0.4 µM |
| COc1ccc(N2C(=O)c3[nH]nc(CC(C)C)c3[C@H]2c2ccc(F)cc2)cc1 [CMLD013629] | >10 µM | 20 µM | – | – | – | EC50 [4, 8]: 10 µM; CC50 ([5]; host THP-1 cells): 25.1 µM |
